Assay results: ChEMBL document CHEMBL4342418, “1,2,3-Triazole-containing hybrids as potential anticancer agents: Current developments, action mechanisms and structure-activity relationships” (Eur J Med Chem, 2019)
pIC50: −log10 of the molar value.

Assays:
[1] = system: T47D; assay: Antiproliferative activity against human T47D cells by MTT assay; type: functional, cell-based
[2] = system: WiDr; assay: Antiproliferative activity against human WiDr cells by MTT assay; type: functional, cell-based
[3] = system: A549; assay: cells; type: functional, cell-based; conditions: Homo sapiens
Description: Antiproliferative activity against human A549 cells by MTT assay

[4] = system: SW1573; assay: Antiproliferative activity against human SW1573 cells by MTT assay; type: functional, cell-based
[5] = system: HBL-100; assay: Antiproliferative activity against human HBL100 cells by MTT assay; type: functional, cell-based
[6] = system: HeLa; assay: Antiproliferative activity against human HeLa cells by MTT assay; type: functional, cell-based
[7] = system: P388; assay: Antiproliferative activity against mouse P388 cells by MTT assay; type: functional, cell-based
[8] = system: Lu1; assay: Antiproliferative activity against human Lu1 cells by MTT assay; type: functional, cell-based
[9] = system: HepG2; assay: Antiproliferative activity against human HepG2 cells by MTT assay; type: functional, cell-based
[10] = system: HL-60; assay: Antiproliferative activity against human HL60 cells by MTT assay; type: functional, cell-based
[11] = system: KB; assay: Antiproliferative activity against human KB cells by MTT assay; type: functional, cell-based
[12] = system: MCF7; assay: cells; type: functional, cell-based; conditions: Homo sapiens
Description: Antiproliferative activity against human MCF7 cells by MTT assay

[13] = system: MDA-MB-231; assay: Antiproliferative activity against human MDA-MB-231 cells by MTT assay; type: functional, cell-based
[14] = system: MCF-10A; assay: Cytotoxicity against human MCF10A cells by MTT assay; type: cell-based
[15] = system: HeLa; assay: Antiproliferative activity against human HeLa cells assessed as reduction in cell viability after 48 hrs by SRB assay; type: functional
[16] = system: IMR-32; assay: Antiproliferative activity against human IMR32 cells assessed as reduction in cell viability after 48 hrs by SRB assay; type: functional; conditions: IMR-32, 48 h
[17] = system: HepG2; assay: Antiproliferative activity against human HepG2 cells assessed as reduction in cell viability after 48 hrs by SRB assay; type: functional; conditions: HepG2, 48 h
[18] = system: MCF7; assay: Antiproliferative activity against human MCF7 cells assessed as reduction in cell viability after 48 hrs by SRB assay; type: functional, cell-based; conditions: MCF7, 48 h

Structure (SMILES) | pIC50 [1] | pIC50 [3] | pIC50 [4] | pIC50 [6] | pIC50 [2] | pIC50 [5] | also measured
COC(=O)c1coc([C@H](Cc2ccccc2)n2cc(CC3CC(O[Si](C)(C)C(C)(C)C)CC(C(C)C)C3)nn2)n1 (stereo partly drawn) | 4.06 to 5.51 | 4.06 to 5.51 | 4.06 to 5.51 | 4.06 to 5.51 | 4.06 to 5.51 | 4.06 to 5.51 | 
CCCC1CC(Cc2cn([C@@H](Cc3ccccc3)c3nc(C(=O)OC)co3)nn2)CC(O[Si](C)(C)C(C)(C)C)C1 (stereo partly drawn) | 4.06 to 5.51 | 4.06 to 5.51 | 4.06 to 5.51 | 4.06 to 5.51 | 4.06 to 5.51 | 4.06 to 5.51 | 
Cc1c2ccncc2c(C)c2c1[nH]c1ccccc12 [ELLIPTECINE] |  |  |  |  |  |  | pIC50 [7]: 5.46 to 5.77; pIC50 [8]: 5.46 to 5.77; pIC50 [9]: 5.84 to 6.03; pIC50 [10]: 5.46 to 5.77; pIC50 [11]: 5.90 to 6.09; pIC50 [12]: 5.46 to 5.77
Cc1c(C(F)(F)F)cc(Cl)c(Cl)c1-n1nnc(-c2nn(-c3nncc4ccccc34)cc2C=O)c1C |  |  |  |  |  |  | pIC50 [13]: 4.56 to 5.17; pIC50 [14]: 4.60 to 4.66; pIC50 [12]: 4.56 to 5.17
Cc1c(C(F)(F)F)cc(Cl)c(Cl)c1-n1nnc(-c2nn(-c3ccccc3)cc2C=O)c1C |  |  |  |  |  |  | pIC50 [13]: 4.56 to 5.17; pIC50 [14]: 4.60 to 4.66; pIC50 [12]: 4.56 to 5.17
Fc1ccc(-n2ncc(OCc3cn(Cc4ccccc4)nn3)c2-c2ccc(Cl)cc2)cc1 |  |  |  |  |  |  | GI50 [15]: 1.8 to 3.8 µM; GI50 [16]: 1.8 to 3.8 µM; GI50 [17]: 1.8 to 3.8 µM; GI50 [18]: 1.8 to 3.8 µM
Cc1cn([C@H]2C[C@H](n3cc(CCOC(=O)CCC(=O)O[C@@H]4O[C@@H]5O[C@@]6(C)CC[C@H]7[C@H](C)CC[C@@H]([C@H]4C)[C@@]57OO6)nn3)[C@@H](CO)O2)c(=O)[nH]c1=O |  |  |  |  |  |  | pIC50 [9]: 4.35; pIC50 [11]: 4.78
CCCC1CC(Cc2cn([C@H](c3nc(C(=O)OC)co3)C(C)CC)nn2)CC(O[Si](C)(C)C(C)(C)C)C1 (stereo partly drawn) | 4.06 to 5.51 | 4.06 to 5.51 | 4.06 to 5.51 | 4.06 to 5.51 | 4.06 to 5.51 | 4.06 to 5.51 | 
Cc1c(C(=O)Nc2ccccc2)nnn1-c1ccnc2cc(Cl)ccc12 |  |  |  |  |  |  | pIC50 [13]: 4.72; pIC50 [12]: 4.50
CCC(C)[C@@H](c1nc(C(=O)OC)co1)n1cc(CC2CC(CCc3ccccc3)CC(O[Si](C)(C)C(C)(C)C)C2)nn1 (stereo partly drawn) | 4.06 to 5.51 | 4.06 to 5.51 | 4.06 to 5.51 | 4.06 to 5.51 | 4.06 to 5.51 | 4.06 to 5.51 | 
COC(=O)c1coc(Cn2cc(CC3CC(O[Si](C)(C)C(C)(C)C)CC(C(C)C)C3)nn2)n1 (stereo not drawn) | 4.06 to 5.51 | 4.06 to 5.51 | 4.06 to 5.51 | 4.06 to 5.51 | 4.06 to 5.51 | 4.06 to 5.51 | 
O=[N+]([O-])c1ccc(Cn2cc(COc3cnn(-c4ccc(F)cc4)c3-c3ccc(Cl)cc3)nn2)cc1 |  |  |  |  |  |  | GI50 [15]: 1.8 to 9.7 µM; GI50 [16]: 1.8 to 9.7 µM; GI50 [17]: 1.8 to 9.7 µM; GI50 [18]: 1.8 to 9.7 µM
Cc1ccc(-c2c(OCc3cn(Cc4ccccc4Br)nn3)cnn2-c2ccc(F)cc2)cc1 |  |  |  |  |  |  | GI50 [15]: 1.8 to 9.7 µM; GI50 [16]: 1.8 to 9.7 µM; GI50 [17]: 1.8 to 9.7 µM; GI50 [18]: 1.8 to 9.7 µM
O=[N+]([O-])c1ccc(Cn2cc(COc3cnn(-c4ccccc4)c3-c3ccccc3)nn2)cc1 |  |  |  |  |  |  | GI50 [15]: 1.8 to 9.7 µM; GI50 [16]: 1.8 to 9.7 µM; GI50 [17]: 1.8 to 9.7 µM; GI50 [18]: 1.8 to 9.7 µM
C=CCC1CC(Cc2cn([C@H](c3nc(C(=O)OC)co3)C(C)CC)nn2)CC(O[Si](C)(C)C(C)(C)C)C1 (stereo partly drawn) | 4.06 to 5.51 | 4.06 to 5.51 | 4.06 to 5.51 | 4.06 to 5.51 | 4.06 to 5.51 | 4.06 to 5.51 | 
C[C@H]1[C@H](OC(=O)CCC(=O)O)O[C@@H]2O[C@@]3(C)CC[C@H]4[C@H](C)CC[C@@H]1[C@@]24OO3 [ARTESUNATE] |  |  |  |  |  |  | pIC50 [9]: 4.23; pIC50 [11]: 4.11
Cc1ccc(-c2c(OCc3cn(Cc4ccc([N+](=O)[O-])cc4)nn3)cnn2-c2ccc(F)cc2)cc1 |  |  |  |  |  |  | GI50 [15]: 1.8 to 9.7 µM; GI50 [16]: 1.8 to 9.7 µM; GI50 [17]: 1.8 to 9.7 µM; GI50 [18]: 1.8 to 9.7 µM

Continued, in another order:

pIC50 [1] | pIC50 [3] | pIC50 [4] | pIC50 [6] | Structure (SMILES) | pIC50 [2] | pIC50 [5] | also measured
4.78 to 4.96 |  |  |  | COc1ccc(Cn2cc(Cn3c4ccccc4c(=O)c4cc(OC)ccc43)nn2)cc1 |  |  | pIC50 [13]: 4.78 to 4.96; pIC50 [12]: 4.78 to 4.96
4.06 to 5.51 | 4.06 to 5.51 | 4.06 to 5.51 | 4.06 to 5.51 | COC(=O)c1coc(Cn2cc(CC3CC(CCc4ccccc4)CC(O[Si](C)(C)C(C)(C)C)C3)nn2)n1 (stereo not drawn) | 4.06 to 5.51 | 4.06 to 5.51 | 
